The results in this text go back to PMC6696115, “Characterization of Antimicrobial, Antioxidant, and Leishmanicidal Activities of Schiff Base Derivatives of 4-Aminoantipyrine” (Molecules, 2019).

Values after ≈ are worked out from the molar mass of the structure shown.

In data set [1] the test system is promastigotes from L. mexicana (M379). The data set can be described thus: leishmanicidal activity, MTT colorimetric assay. Format: cell-based. Conditions: Leishmania mexicana, 48 h exposure, 1% DMSO.
A further data set concerns RAW 264.7 cells. The data set can be described thus: cell viability, MTT dye assay. The class given is cell-based, murine. The settings on record: RAW 264.7, exposure to 400 µM, 48 h. On the procedure: The specificity and selectivity for the pathogen target is a key point for any potential drug.
The medium was renewed once a week. The viability was determined using MTT (thiazolyl blue tetrazolium bromide) dye assay as described previously for leishmanicidal activity assessment, with some variations. Here, 5 × 10^4 cells/well in a final volume of 100 µL were deposited into a 96-well plate in triplicate. Saponin (2 and 4 mg/mL) and untreated cells were used as the positive control and negative control, respectively. Schiff bases were dissolved in DMSO to obtain different serial concentrations (0.01–2000 µM). […] Cells were pelleted by centrifugation at 4400 rpm for 10 minutes and the media was removed. Next, 100 µL/well of DMSO were added and the absorbance at 570 nm was recorded. A reference wavelength of 630 nm was used for background subtraction.

For data set [2], the system named is S. cerevisiae wild-type (W303 and BY4741 backgrounds). In words: drop test, wild-type yeast. Format: cell-based, Saccharomyces cerevisiae. The settings on record: 200 µg/mL, 48 h, 25 °C. As to the method:
Since the Schiff bases have a limited solubility in dimethyl sulfoxide (DMSO), first, we tested the toxicity of DMSO against the selected microorganism. […] Wild-type cells from W303 background seem to be more resistant, and sensitivity is observed at around 4% DMSO.
(§1) Next, we wanted to evaluate the oxidative activity. To do this, drop test assays were performed with wild-type (W303 and BY4741 backgrounds) and sod1 (BY4741 background) yeast cells in the presence of 200 µg/mL of the analyzed Schiff bases (Figure 3). The SOD1 gene encodes superoxide dismutase 1, an enzyme with a major role in detoxifying ROS species generated during metabolism or because of environmental exposure. sod1 mutant cells are unprotected against oxidative agents, decreasing survival in their presence. […] Also, wild-type cells are shown as control, unaffected by the Schiff bases.
(§2) For the drop test with S. cerevisiae, wild-type strain (background W303), and wild type and sod1 mutant cells (background BY4741) were grown overnight in YPAD media until an optical density of 0.5 at 600 nm was reached (equivalent to 1 × 10^7 cells/mL). Three serial dilutions were prepared and 5 µL of each was spotted onto a plate (approximately 1 × 10^5, 1 × 10^4, 1 × 10^3, and 1 × 10^2 cells/spot). YPAD plates were supplemented with 200 µg/mL of each Schiff base, and one plate supplemented with 2% DMSO and one plate with YPAD without any drug were used as controls. Plates were incubated at 25 °C for 24, 48, and 72 h.

Another data set deals with P. aeruginosa ATCC 27853. In words: antimicrobial serial microdilution, P. aeruginosa. Format: cell-based. Conditions: Pseudomonas aeruginosa, ATCC27853, 37 °C, 24 h.
Data set [3] has as its system S. cerevisiae (backgrounds W303 and BY4741). The data set can be described thus: antimicrobial serial microdilution, S. cerevisiae. The class given is cell-based, Saccharomyces cerevisiae. The settings on record: Saccharomyces cerevisiae; serial microdilution, 35 °C, 48 h; read-out: MIC S. cerevisiae.
For data set [4], the system named is Candida albicans ATCC 10231. In words: antimicrobial serial microdilution, C. albicans. Format: cell-based. Conditions: serial microdilution, 35 °C, 48 h.
Data set [5] relates to S. cerevisiae sod1 mutant cells (background BY4741). In words: drop test, sod1 mutant yeast. The class given is cell-based, Saccharomyces cerevisiae. The settings on record: 200 µg/mL, 48 h, 25 °C, compared to control. As to the method: as §1, §2
The subject of data set [6] is Aspergillus niger ATCC 6275. In words: antimicrobial serial microdilution, A. niger. The class given is cell-based. Conditions: Aspergillus niger, ATCC6275; serial microdilution, 96-well plates, 35 °C, 48 h, max 2% DMSO.
Data set [7] concerns Staphylococcus aureus ATCC 29213. In words: antimicrobial serial microdilution, S. aureus. The class given is cell-based. The settings on record: Staphylococcus aureus, ATCC29213; serial microdilution, 37 °C, 24 h.

In the case of `Cc1c(N=Cc2ccccc2O)c(=O)n(-c2ccccc2)n1C` [Compound 3b, 4-(2-Hydroxybenzylideneamino)-1,5-dimethyl-2-phenyl-1H-pyrazol-3(2H)-one], the IC50 in data set [1] was above 200 µM; in [4] (Candida albicans, ATCC10231) it was 5.8 µg/mL (≈ 18.9 µM). The “% Live Cells” value with RAW 264.7 cells stood at 19.3 ± 0.2%. Moreover, in data set [2], the “effect on wild-type cells in drop test” value is given as “unaffected”. Besides, the MIC against P. aeruginosa ATCC 27853 was above 200 µg/mL; in data set [3], above 200 µg/mL; in data set [4] (Candida albicans, ATCC10231) it was 13.2 ± 1.6 µg/mL (≈ 42.9 µM); in data set [6], above 200 µg/mL; in data set [7], above 200 µg/mL. Besides, the “NIC C. albicans” value in data set [4] (noninhibitory concentration) was determined as 3.0 ± 2.2 µg/mL. Besides, the “sensitivity of sod1 cells in drop test” value in [5] is reported as “sensitive”.
